Results as given in patent US20230181536A1, “ANTICANCER COMBINATION THERAPY WITH N-(1-ACRYLOYL-AZETIDIN-3-YL)-2-((1H-INDAZOL-3-YL)AMINO)METHYL)-1H-IMIDAZOLE-5-CARBOXAMIDE INHIBITOR OF KRAS-G12C” (TAIHO PHARMACEUTICAL CO., LTD., priority 2020, published 2023).

Each molecule was assayed against T1, KRAS G12C (Homo sapiens, UniProt P01116, G12C) (assay: Inhibitory activity on the KRAS G12C nucleotide (GDP-GTP) exchange reaction). Conditions: Bodipy FL GDP-bound KRAS G12C 25 nM; preincubation at 25° C. for 4 hours; SOS1 100 nM, GppNHp 1 μM, reaction for 30 minutes.
T1 construct: KRAS G12C (amino acid region: 1-169)
Format: biochemical
Summary of the method: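 Bodipy FL-GDP-loaded KRAS G12C (aa 1-169, 25 nM) preincubated with compound 4 h at 25 °C in pH 7.5 Tris buffer, 5% DMSO; exchange started with SOS1 (aa 564-1049, 100 nM) and 1 μM GppNHp for 30 min. Fluorescence change (ex 485/em 520 nm) normalized to DMSO and no-GppNHp controls; IC50 calculated.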

T1 sequence (P01116 1-169 isoform P01116-2 G12C): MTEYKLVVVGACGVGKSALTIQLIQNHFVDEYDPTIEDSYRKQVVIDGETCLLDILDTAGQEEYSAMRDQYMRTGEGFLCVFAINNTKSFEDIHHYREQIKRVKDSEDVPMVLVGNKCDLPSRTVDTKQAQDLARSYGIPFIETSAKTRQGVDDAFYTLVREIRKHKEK

| IC50 [nM] | Compound |
| --- | --- |
| 8 | C=CC(=O)N1CC(NC(=O)c2c(Cl)nc(CNc3n[nH]c4cc(Cl)c(C(C)(C)C)cc34)n2C2CCCC2)C1 [Example 105, N-(1-acryloylazetidin-3-yl)-2-(((5-(tert-butyl)-6-chloro-1H-indazol-3-yl)amino)methyl)-4-chloro-1-cyclopentyl-1H-imidazole-5-carboxamide] |
| 870 | C=CC(=O)N1CC(NC(=O)c2cnc(CNc3n[nH]c4cc(Cl)c(CC)cc34)n2C)C1 [Example 39, N-(1-acryloylazetidin-3-yl)-2-(((6-chloro-5-ethyl-1H-indazol-3-yl)amino)methyl)-1-methyl-1H-imidazole-5-carboxamide] |
| 1060 | C=CC(=O)N1CC(NC(=O)c2oc(CNc3n[nH]c4cc(Cl)c(C(C)(C)C)cc34)nc2C)C1 [Example 11, N-(1-acryloylazetidin-3-yl)-2-(((5-(tert-butyl)-6-chloro-1H-indazol-3-yl)amino)methyl)-4-methyloxazole-5-carboxamide] |
| 14 | C=CC(=O)N1CC(NC(=O)c2c(C)nc(CNc3n[nH]c4cc(C)c(C(C)(C)C)cc34)n2C)C1 [Example 41, N-(1-acryloylazetidin-3-yl)-2-(((5-(tert-butyl)-6-methyl-1H-indazol-3-yl)amino)methyl)-1,4-dimethyl-1H-imidazole-5-carboxamide] |
| 10 | C=CC(=O)N1CC(NC(=O)c2c(C(F)F)nc(CNc3n[nH]c4cc(Cl)c(C(C)(C)C)cc34)n2C2CCN(CC)C2)C1 (centres unmarked) [Example 92, N-(1-acryloylazetidin-3-yl)-2-(((5-(tert-butyl)-6-chloro-1H-indazol-3-yl)amino)methyl)-4-(difluoromethyl)-1-(1-ethylpyrrolidin-3-yl)-1H-imidazole-5-carboxamide] |
| 63 | CC(C)n1c(CNc2n[nH]c3cc(Cl)c(C(C)(C)C)cc23)nc(C(F)F)c1C(=O)NC1CN(C(=O)/C=C/CN(C)C)C1 [Example 84, (E)-2-(((5-(tert-butyl)-6-chloro-1H-indazol-3-yl)amino)methyl)-4-(difluoromethyl)-N-(1-(4-(dimethylamino)but-2-enoyl)azetidin-3-yl)-1-isopropyl-1H-imidazole-5-carboxamide] |
| 117 | C=CC(=O)N1C[C@@H](C)[C@@H](NC(=O)c2c(C(F)F)nc(CNc3n[nH]c4cc(Cl)c(C(C)(C)C)cc34)n2C)C1 [Example 71, N-((3R,4R)-1-acryloyl-4-methylpyrrolidin-3-yl)-2-(((5-(tert-butyl)-6-chloro-1H-indazol-3-yl)amino)methyl)-4-(difluoromethyl)-1-methyl-1H-imidazole-5-carboxamide] |
| 5 | C=CC(=O)N1CC(NC(=O)c2c(Cl)nc(CNc3n[nH]c4cc(Cl)c(C(C)(C)C)cc34)n2C2CCCN(C)C2)C1 (centres unmarked) [Example 118, N-(1-acryloylazetidin-3-yl)-2-(((5-(tert-butyl)-6-chloro-1H-indazol-3-yl)amino)methyl)-4-chloro-1-(1-methylpiperidin-3-yl)-1H-imidazole-5-carboxamide] |
| 14 | C=CC(=O)N1CC(NC(=O)c2c(Cl)nc(CNc3n[nH]c4cc(Cl)c(C(C)(C)C)cc34)n2CCCC)C1 [Example 87, N-(1-acryloylazetidin-3-yl)-1-butyl-2-(((5-(tert-butyl)-6-chloro-1H-indazol-3-yl)amino)methyl)-4-chloro-1H-imidazole-5-carboxamide] |
| 85 | C=CC(=O)N1C[C@@H](NC(=O)c2c(C)nc(CNc3n[nH]c4cc(Cl)c(C(C)(C)C)cc34)n2C)[C@@H]1C (relative stereo) [Example 59, N-(trans-1-acryloyl-2-methylazetidin-3-yl)-2-(((5-(tert-butyl)-6-chloro-1H-indazol-3-yl)amino)methyl)-1,4-dimethyl-1H-imidazole-5-carboxamide] |
| 63 | Cc1nc(CNc2n[nH]c3cc(Cl)c(C(C)(C)C)cc23)n(C)c1C(=O)NC1CN(C(=O)/C=C/CN(C)C)C1 [Example 80, (E)-2-(((5-(tert-butyl)-6-chloro-1H-indazol-3-yl)amino)methyl)-N-(1-(4-(dimethylamino)but-2-enoyl)azetidin-3-yl)-1,4-dimethyl-1H-imidazole-5-carboxamide] |
